SMILES strings stand for the structures.

human recombinant H-PGDS, sequence (O60760 whole entry): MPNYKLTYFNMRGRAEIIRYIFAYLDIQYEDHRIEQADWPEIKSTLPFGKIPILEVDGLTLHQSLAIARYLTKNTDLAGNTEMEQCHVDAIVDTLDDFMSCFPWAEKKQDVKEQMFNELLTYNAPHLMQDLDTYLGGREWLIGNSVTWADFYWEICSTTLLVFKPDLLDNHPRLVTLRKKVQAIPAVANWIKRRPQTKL

This test addresses human recombinant H-PGDS (Homo sapiens, UniProt O60760). Nature of the test: Fluorescence Intensity h-PGDS TBA Enzyme Assay. The format is biochemical. As to conditions: 1:175,000 human recombinant H-PGDS, highest inhibitor concentration typically 1 μM. In outline:
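Recombinant human H-PGDS preincubated 10 min at room temperature with inhibitor in 100 mM Tris pH 8.0, 100 μM MgCl2, 2.5 mM glutathione, 0.5% DMSO; 5.0 μM PGH2 added, stopped after 42 s with FeCl2/citric acid. Remaining PGH2 measured as MDA–TBA fluorescence (ex 530/em 565 nm); IC50 by 4-parameter fit, 11 concentrations.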
In general, IC50 refers to the concentration needed to halve the response being measured. As to `O=C(NCC1COc2ccccc2C1)c1ccc(-c2cc(F)cc(F)c2)nc1` (stereo not drawn) [Example 542, 6-(3,5-Difluorophenyl)-N-(3,4-dihydro-2H-chromen-3-ylmethyl)nicotinamide], the IC50 was 39.1 nM.
In the case of `CCOC(=O)C(CNC(=O)c1ccc(-c2ccc(F)cc2)nc1)c1c(F)cccc1F` (stereo not drawn) [Example 457, Ethyl 2-(2,6-difluorophenyl)-3-({[6-(4-fluorophenyl)pyridin-3-yl]carbonyl}amino) propanoate] it was 428 nM.
In the case of `O=C(NCC1(O)CCCCC1)c1ccc(-c2cccc(F)c2)nc1` [Example 26, 6-(3-Fluorophenyl)-N-[(1-hydroxycyclohexyl)methyl] nicotinamide] it was 41.8 nM.
Under `CN1CCc2nc(N3CCC(CNC(=O)c4ccc(-c5cccc(F)c5)nc4)CC3)ncc2C1` [Example 10, 6-(3-Fluorophenyl)-N-{[1-(6-methyl-5,6,7,8-tetrahydropyrido[4,3-d]pyrimidin-2-yl)piperidin-4-yl]methyl}nicotinamide] stands 26.9 nM; under `CN(C)C(=O)CNC(=O)c1ccc(-c2cccc(F)c2)nc1` [Example 161, N-[2-(dimethylamino)-2-oxoethyl]-6-(3-fluorophenyl)nicotinamide], 88 nM.
For `COC(=O)CCNC(=O)c1ccc(-c2cccc(OC)c2)nc1` [Example 335, Methyl N-{[6-(3-methoxyphenyl)pyridin-3-yl]carbonyl}-beta-alaninate], the IC50 worked out at 352 nM.
Consider `O=C(NC[C@H]1CC[C@H](c2nnc(C3CC3)[nH]2)CC1)c1ccc(-c2cccc(F)c2)nc1` [Example 9, N-{[trans-4-(5-Cyclopropyl-4H-1,2,4-triazol-3-yl)cyclohexyl]methyl}-6-(3-fluorophenyl)nicotinamide], for which the IC50 was found to be 83.6 nM.
As for `O=C(Nc1cccnc1)c1ccc(-c2cccc(F)c2)nc1` [Example 419, 6-(3-Fluorophenyl)-N-pyridin-3-ylnicotinamide], the IC50 came to 3.94 nM.
In the case of `O=C(NCCCN1CCCC1=O)c1ccc(-c2cccc(F)c2)nc1` [Example 156, 6-(3-Fluorophenyl)-N-[3-(2-oxopyrrolidin-1-yl)propyl]nicotinamide] it was 15.7 nM; in that of `O=C(NCCN1CCCC(CO)C1)c1ccc(-c2cccc(F)c2)nc1` (stereo not drawn) [Example 18, 6-(3-Fluorophenyl)-N-{2-[3-(hydroxymethyl)piperidin-1-yl]ethyl}nicotinamide], 31.1 nM.
Under `Cc1cccc(-c2ccc(C(=O)NCCC3CCN(C)CC3)cn2)c1` [Example 253, 6-(3-Methylphenyl)-N-[2-(1-methylpiperidin-4-yl)ethyl]nicotinamide] stands 100 nM; under `O=C(NCCC1CNCCO1)c1ccc(-c2ccc(F)cc2)nc1` (stereo not drawn) [Example 458, 6-(4-Fluorophenyl)-N-(2-morpholin-2-ylethyl)nicotinamide], 697 nM; under `CC(Cn1cccn1)NC(=O)c1ccc(-c2cccc(F)c2)nc1` (stereo not drawn) [Example 126, 6-(3-Fluorophenyl)-N-[1-methyl-2-(1H-pyrazol-1-yl)ethyl]nicotinamide], 33.8 nM.
Consider `CNS(=O)(=O)c1ccc(CNC(=O)c2cnc(-c3cccc(F)c3)c(Cl)c2)cc1` [Example 554, 5-Chloro-6-(3-fluorophenyl)-N-{4-[(methylamino)sulfonyl]benzyl}nicotinamide], for which the IC50 was 223 nM.
Under `Cc1cccc(-c2ccc(C(=O)NC(C)c3ccncn3)cn2)c1` (stereo not drawn) [Example 319, 6-(3-Methylphenyl)-N-(1-pyrimidin-4-ylethyl)nicotinamide] stands 140 nM; under `Cc1cc(=O)[nH]c(NCCNC(=O)c2ccc(-c3cccc(F)c3)nc2)n1` [Example 7, 6-(3-Fluorophenyl)-N-{2-[(4-methyl-6-oxo-1,6-dihydropyrimidin-2-yl)amino]ethyl}nicotinamide], 38.8 nM; under `COc1cccc(-c2ccc(C(=O)NCc3nnc(-c4cccnc4)[nH]3)cn2)c1` [Example 510, 6-(3-Methoxyphenyl)-N-[(5-pyridin-3-yl-4H-1,2,4-triazol-3-yl)methyl]nicotinamide], 575 nM.
Under `O=C(NCc1cn2ccccc2n1)c1ccc(-c2cccc(F)c2)nc1` [Example 100, 6-(3-Fluorophenyl)-N-(imidazo[1,2-a]pyridin-2-ylmethyl)nicotinamide] stands 12.8 nM; under `Cc1ccccc1CNC(=O)c1ccc(-c2cccc(F)c2)nc1` [Example 153, 6-(3-Fluorophenyl)-N-(2-methylbenzyl)nicotinamide], 2.99 nM.
In the case of `O=C(NCCc1cccs1)c1ccc(-c2ccc(F)cc2)nc1` [Example 507, 6-(4-Fluorophenyl)-N-[2-(2-thienyl)ethyl]nicotinamide] it was 578 nM.
As for `O=C(Nc1ccncc1)c1ccc(-c2cccc(F)c2)nc1` [Example 177, 6-(3-Fluorophenyl)-N-pyridin-4-ylnicotinamide], the IC50 worked out at 8.19 nM.
In the case of `O=C(NCc1ccc(-n2cncn2)cc1)c1ccc(-c2cccc(F)c2)nc1` [Example 180, 6-(3-Fluorophenyl)-N-[4-(1H-1,2,4-triazol-1-yl)benzyl]nicotinamide] it was 23.1 nM; in that of `CCC1CCN(CCNC(=O)c2ccc(-c3cccc(F)c3)nc2)CC1` [Example 188, N-[2-(4-Ethylpiperidin-1-yl)ethyl]-6-(3-fluorophenyl)nicotinamide], 16.3 nM.
Turning to `CCOC(=O)CC(NC(=O)c1ccc(-c2cccc(C)c2)nc1)c1ccc(Cl)cc1` (stereo not drawn) [Example 221, Ethyl 3-(4-chlorophenyl)-3-({[6-(3-methylphenyl)pyridin-3-yl]carbonyl}amino)propanoate], the IC50 came to 55.9 nM.
In the case of `Cc1cccc(-c2ccc(C(=O)NCc3ccc(Cl)cc3)cn2)c1` [Example 451, N-(4-Chlorobenzyl)-6-(3-methylphenyl)nicotinamide] it was 234 nM; in that of `COc1cccc(-c2ccc(C(=O)NCCc3nc(C)no3)cn2)c1` [Example 278, 6-(3-Methoxyphenyl)-N-[2-(3-methyl-1,2,4-oxadiazol-5-yl)ethyl]nicotinamide], 324 nM; in that of `O=C(NCCCn1ncc2ccccc21)c1cnc(-c2cccc(F)c2)c(Cl)c1` [Example 551, 5-Chloro-6-(3-fluorophenyl)-N-[3-(1H-indazol-1-yl)propyl]nicotinamide], 84.7 nM.
`COc1cccc(-c2ccc(C(=O)NCCN3CCCC3=O)cn2)c1` [Example 300, 6-(3-methoxyphenyl)-N-[2-(2-oxopyrrolidin-1-yl)ethyl]nicotinamide]: the IC50 was found to be 762 nM.
On to `COC(=O)[C@H](C)NC(=O)c1ccc(-c2cccc(C)c2)nc1` [Example 219, Methyl N-{[6-(3-methylphenyl)pyridin-3-yl]carbonyl}alaninate], for which the concentration for half-maximal inhibition (IC50) is 89.4 nM.
Under `CCC1CCN(CCNC(=O)c2ccc(-c3ccc(F)cc3)nc2)CC1` [Example 468, N-[2-(4-Ethylpiperidin-1-yl)ethyl]-6-(4-fluorophenyl)nicotinamide] stands 688 nM.
Under `O=C(NCCCNc1ccccn1)c1ccc(-c2cccc(F)c2)nc1` [Example 197, 6-(3-Fluorophenyl)-N-[3-(pyridin-2-ylamino)propyl]nicotinamide] stands 34 nM.
Under `Cc1cccc(NC(=O)c2ccc(-c3ccccc3)nc2)c1` [Example 392, N-(3-Methylphenyl)-6-phenylnicotinamide] stands 1.12 nM; under `COc1ccccc1-c1nnc(CCNC(=O)c2ccc(-c3cccc(F)c3)nc2)o1` [Example 16, 6-(3-Fluorophenyl)-N-{2-[5-(2-methoxyphenyl)-1,3,4-oxadiazol-2-yl]ethyl}nicotinamide], 4.1 nM.
For `CC(NC(=O)c1ccc(-c2cccc(F)c2)nc1)C1CC1` (stereo not drawn) [Example 128, N-(1-Cyclopropylethyl)-6-(3-fluorophenyl)nicotinamide], the IC50 was determined as 28.3 nM.
On to `O=C(NCC1(O)CCCC1)c1ccc(-c2cccc(F)c2)nc1` [Example 140, 6-(3-Fluorophenyl)-N-[(1-hydroxycyclopentyl)methyl] nicotinamide], for which the IC50 was 32 nM.
Turning to `O=C(NCC1CC2(CCN(Cc3ccccn3)CC2)CO1)c1ccc(-c2cccc(F)c2)nc1` (stereo not drawn) [Example 53, 6-(3-Fluorophenyl)-N-{[8-(pyridin-2-ylmethyl)-2-oxa-8-azaspiro[4.5]dec-3-yl]methyl}nicotinamide], the IC50 stood at 19.2 nM.
For the compound `CCOC(=O)CC(NC(=O)c1ccc(-c2cccc(OC)c2)nc1)c1ccccc1` (stereo not drawn) [Example 272, Ethyl 3-({[6-(3-methoxyphenyl)pyridin-3-yl]carbonyl}amino)-3-phenylpropanoate], the IC50 is 474 nM.
As to `Cc1cccc(-c2ccc(C(=O)NCC(C)O)cn2)c1` (stereo not drawn) [Example 234, N-(2-Hydroxypropyl)-6-(3-methylphenyl)nicotinamide], the IC50 is 66.2 nM.
In the case of `CCOC(=O)c1nnc(CNC(=O)c2ccc(-c3cccc(F)c3)nc2)o1` [Example 217, Ethyl 5-[({[6-(3-fluorophenyl)pyridin-3-yl]carbonyl}amino)methyl]-1,3,4-oxadiazole-2-carboxylate] it was 39.9 nM.
Turning to `COCCN1C(=O)CCC1CCNC(=O)c1ccc(-c2cccc(F)c2)nc1` (stereo not drawn) [Example 46, 6-(3-Fluorophenyl)-N-{2-[1-(2-methoxyethyl)-5-oxopyrrolidin-2-yl]ethyl}nicotinamide], the IC50 was found to be 17.3 nM.
Under `O=C(NC1CCN(Cc2ccc(Cl)cc2)C1=O)c1ccc(-c2ccc(F)cc2)nc1` (stereo not drawn) [Example 474, N-[1-(4-Chlorobenzyl)-2-oxopyrrolidin-3-yl]-6-(4-fluorophenyl)nicotinamide] stands 734 nM; under `O=C(NCCCN1CCCC1=O)c1ccc(-c2ccc(F)cc2)nc1` [Example 327, 6-(4-Fluorophenyl)-N-[3-(2-oxopyrrolidin-1-yl)propyl]nicotinamide], 597 nM.

For the origin of these results see patent publication US20110306597A1, “Nicotinamide Derivatives” (priority 2008, published 2011).
